One experiment deals with Melanocortin receptor 4 (Homo sapiens, UniProt P32245). The experiment is described as follows: Agonistic activity against human Melanocortin 4 receptor. The experiment is classed as functional.
The target in experiment [1] is Melanocortin receptor (M1 and M4) (Homo sapiens) (UniProt P32245+Q01726). The experiment is described as follows: Ratio of EC50 of Melanocortin 4 receptor to that of Melanocortin 1 receptor. In kind it is protein assay.
In another experiment the target is Melanocortin receptor 3 (Homo sapiens, UniProt P41968). In words: Agonistic activity against human Melanocortin 3 receptor. In kind it is functional.
Experiment [2] deals with Melanocyte-stimulating hormone receptor (Homo sapiens, UniProt Q01726). In words: Agonistic activity against human Melanocortin 1 receptor. The experiment is classed as functional.
Experiment [3] concerns the target Melanocortin receptor (M3 and M4) (Homo sapiens) (UniProt P32245+P41968). In words: Ratio of EC50 of Melanocortin 4 receptor to that of Melanocortin 3 receptor. In kind it is protein assay.

What is called EC50 is the concentration needed to bring the measured effect to its halfway point. Low readings indicate higher potency in that assay, high ones lower potency in that assay.

Sequence of Melanocortin receptor 3 (P41968 whole entry): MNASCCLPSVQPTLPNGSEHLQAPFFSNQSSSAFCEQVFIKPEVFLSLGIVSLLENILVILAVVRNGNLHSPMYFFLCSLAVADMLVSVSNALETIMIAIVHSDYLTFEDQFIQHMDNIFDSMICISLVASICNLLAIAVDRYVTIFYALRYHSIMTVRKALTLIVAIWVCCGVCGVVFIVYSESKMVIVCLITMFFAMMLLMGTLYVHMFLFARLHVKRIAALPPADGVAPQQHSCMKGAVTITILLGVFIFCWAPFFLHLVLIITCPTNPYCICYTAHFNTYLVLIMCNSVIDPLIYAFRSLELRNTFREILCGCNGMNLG
Sequence of Melanocortin receptor 4 (P32245 whole entry): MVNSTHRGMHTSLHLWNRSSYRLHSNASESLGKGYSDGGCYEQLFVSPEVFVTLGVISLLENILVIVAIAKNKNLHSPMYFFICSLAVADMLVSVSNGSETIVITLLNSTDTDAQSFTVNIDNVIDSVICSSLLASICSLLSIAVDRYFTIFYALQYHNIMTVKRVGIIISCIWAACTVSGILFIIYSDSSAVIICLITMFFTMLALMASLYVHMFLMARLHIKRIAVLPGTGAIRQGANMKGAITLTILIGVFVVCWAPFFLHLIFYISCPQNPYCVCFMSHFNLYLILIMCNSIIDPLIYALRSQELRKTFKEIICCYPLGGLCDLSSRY
Sequence of Melanocyte-stimulating hormone receptor (Q01726 whole entry): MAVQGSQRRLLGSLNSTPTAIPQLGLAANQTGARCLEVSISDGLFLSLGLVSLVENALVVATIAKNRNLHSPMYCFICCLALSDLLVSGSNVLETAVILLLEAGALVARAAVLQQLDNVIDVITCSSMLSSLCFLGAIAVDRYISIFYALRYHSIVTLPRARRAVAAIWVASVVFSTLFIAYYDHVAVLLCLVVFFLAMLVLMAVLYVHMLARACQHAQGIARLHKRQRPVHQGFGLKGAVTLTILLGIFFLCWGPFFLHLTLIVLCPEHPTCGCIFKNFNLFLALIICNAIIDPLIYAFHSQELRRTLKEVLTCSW

Take `N=C(N)NCCC[C@H](NC(=O)C(Cc1ccccc1)NC(=O)C(Cc1ccccc1)NC(=O)[C@H](Cc1c[nH]cn1)NC(=O)CCCC(=O)c1ccccc1)C(=O)N[C@@H](Cc1c[nH]c2ccccc12)C(N)=O` (stereo in doubt): the EC50 came to 5 nM at Melanocortin receptor 4, 3 nM at Melanocortin receptor 3 and 0.05 nM in experiment [2]. The Ratio in experiment [1] amounted to 0.01.
`CSCC(=O)N[C@@H](Cc1ccc(Cl)cc1)C(=O)NC(Cc1ccccc1)C(=O)N[C@@H](CCCN=C(N)N)C(=O)N[C@@H](Cc1c[nH]c2ccccc12)C(N)=O` (stereo in doubt): the EC50 is 39.3 nM at Melanocortin receptor 4, 1020 nM on Melanocortin receptor 3 and 378 nM in experiment [2]. The Ratio in experiment [1] came to 10; in experiment [3], 26.
Regarding `N=C(N)NCCC[C@H](NC(=O)C(Cc1ccccc1)NC(=O)[C@H](Cc1ccc(Cl)cc1)NC(=O)CNC=O)C(=O)N[C@@H](Cc1c[nH]c2ccccc12)C(N)=O` (stereo in doubt), the EC50 on Melanocortin receptor 4 amounted to 14.1 nM; at Melanocortin receptor 3, 757 nM; in experiment [2] it was 600 nM. Further, the Ratio was 43 in experiment [1] and 54 in experiment [3].
With `CC(C)C(=O)N[C@@H](Cc1ccc(Cl)cc1)C(=O)NC(Cc1ccccc1)C(=O)N[C@@H](CCCN=C(N)N)C(=O)N[C@@H](Cc1c[nH]c2ccccc12)C(N)=O` (stereo in doubt), the EC50 on Melanocortin receptor 4 came to 123 nM; on Melanocortin receptor 3, 497 nM; in experiment [2] it was 565 nM. Also, the Ratio in experiment [1] is 5; in experiment [3] it was 4.
The corresponding values for `COP(=O)(N[C@@H](Cc1ccc(Cl)cc1)C(=O)NC(Cc1ccccc1)C(=O)N[C@@H](CCCN=C(N)N)C(=O)N[C@@H](Cc1c[nH]c2ccccc12)C(N)=O)OC` (stereo in doubt) are 137 nM, 2640 nM, 785 nM, 6 and 19.
With `CS(=O)(=O)N[C@@H](Cc1ccc(Cl)cc1)C(=O)NC(Cc1ccccc1)C(=O)N[C@@H](CCCN=C(N)N)C(=O)N[C@@H](Cc1c[nH]c2ccccc12)C(N)=O` (stereo in doubt), the EC50 at Melanocortin receptor 4 worked out at 419 nM; on Melanocortin receptor 3, 6700 nM; in experiment [2] it was 534 nM. For the same molecule, the Ratio is 1 in experiment [1] and 16 in experiment [3].
For the molecule `N=C(N)NCCC[C@H](NC(=O)C(Cc1ccccc1)NC(=O)[C@H](Cc1ccc(Cl)cc1)NC(=O)Nc1ccccc1)C(=O)N[C@@H](Cc1c[nH]c2ccccc12)C(N)=O` (stereo in doubt), the EC50 worked out at 146 nM at Melanocortin receptor 4, 92.5 nM on Melanocortin receptor 3 and 985 nM in experiment [2]. The Ratio in experiment [1] worked out at 7; in experiment [3], 0.6.
The corresponding values for `N=C(N)NCCC[C@H](NC(=O)C(Cc1ccccc1)NC(=O)[C@H](Cc1ccc(Cl)cc1)NC(=O)c1ccncc1)C(=O)N[C@@H](Cc1c[nH]c2ccccc12)C(N)=O` (stereo in doubt) are 30 nM, 992 nM, 541 nM, 18 and 33.
In the case of `CCCC(=O)N[C@@H](Cc1ccc(Cl)cc1)C(=O)NC(Cc1ccccc1)C(=O)N[C@@H](CCCN=C(N)N)C(=O)N[C@@H](Cc1c[nH]c2ccccc12)C(N)=O` (stereo in doubt), the EC50 on Melanocortin receptor 4 turned out to be 106 nM; on Melanocortin receptor 3, 827 nM; in experiment [2], 803 nM. Besides, the Ratio in experiment [1] and in experiment [3] was 8 each time.
With `CNC(=O)N[C@@H](Cc1ccc(Cl)cc1)C(=O)NC(Cc1ccccc1)C(=O)N[C@@H](CCCN=C(N)N)C(=O)N[C@@H](Cc1c[nH]c2ccccc12)C(N)=O` (stereo in doubt), the EC50 on Melanocortin receptor 4 was found to be 8.5 nM; at Melanocortin receptor 3, 86.5 nM; in experiment [2], 848 nM. Besides, the Ratio was determined as 100 in experiment [1] and 10 in experiment [3].
The corresponding values for `N=C(N)NCCC[C@H](NC(=O)C(Cc1ccccc1)NC(=O)[C@H](Cc1ccc(Cl)cc1)NC(=O)CC(N)=O)C(=O)N[C@@H](Cc1c[nH]c2ccccc12)C(N)=O` (stereo in doubt) are 14.5 nM, 1010 nM, 597 nM, 41 and 70.
The corresponding values for `N=C(N)NCCC[C@H](NC(=O)C(Cc1ccccc1)NC(=O)[C@H](Cc1ccc(Cl)cc1)NC(=O)COc1ccccc1)C(=O)N[C@@H](Cc1c[nH]c2ccccc12)C(N)=O` (stereo in doubt) are 185 nM, 859 nM, 841 nM, 4 and 5.
For `COCC(=O)N[C@@H](Cc1ccc(Cl)cc1)C(=O)NC(Cc1ccccc1)C(=O)N[C@@H](CCCN=C(N)N)C(=O)N[C@@H](Cc1c[nH]c2ccccc12)C(N)=O` (stereo in doubt), in that order: 68.7 nM, 961 nM, 502 nM, 7 and 14.
Consider `CC(=O)N[C@@H](Cc1ccc(Cl)cc1)C(=O)NC(Cc1ccccc1)C(=O)N[C@@H](CCCN=C(N)N)C(=O)N[C@@H](Cc1c[nH]c2ccccc12)C(N)=O` (stereo in doubt), for which the EC50 was 88.5 nM at Melanocortin receptor 4, 553 nM at Melanocortin receptor 3 and 867 nM in experiment [2]. Besides, the Ratio came to 10 in experiment [1] and 6 in experiment [3].
The corresponding values for `CCC(=O)N[C@@H](Cc1ccc(Cl)cc1)C(=O)NC(Cc1ccccc1)C(=O)N[C@@H](CCCN=C(N)N)C(=O)N[C@@H](Cc1c[nH]c2ccccc12)C(N)=O` (stereo in doubt) are 159 nM, 2360 nM, 1980 nM, 12 and 15.
`N=C(N)NCCC[C@H](NC(=O)C(Cc1ccccc1)NC(=O)[C@H](Cc1ccc(Cl)cc1)NC(=O)c1cccs1)C(=O)N[C@@H](Cc1c[nH]c2ccccc12)C(N)=O` (stereo in doubt): the EC50 at Melanocortin receptor 4 was determined as 18.7 nM; at Melanocortin receptor 3 it was 644 nM; in experiment [2], 892 nM. The Ratio is 48 in experiment [1] and 34 in experiment [3].
For `N=C(N)NCCC[C@H](NC(=O)C(Cc1ccccc1)NC(=O)[C@H](Cc1ccc(Cl)cc1)NC(=O)Cc1ccccc1)C(=O)N[C@@H](Cc1c[nH]c2ccccc12)C(N)=O` (stereo in doubt), in that order: 20 nM, 43 nM, 699 nM, 35 and 2.
For `N#CCC(=O)N[C@@H](Cc1ccc(Cl)cc1)C(=O)NC(Cc1ccccc1)C(=O)N[C@@H](CCCNC(=N)N)C(=O)N[C@@H](Cc1c[nH]c2ccccc12)C(N)=O` (stereo in doubt), in that order: 10.5 nM, 3040 nM, 567 nM, 54 and 290.
Regarding `N=C(N)NCCC[C@H](NC(=O)C(Cc1ccccc1)NC(=O)[C@H](Cc1ccc(Cl)cc1)NC(=O)CC(F)(F)F)C(=O)N[C@@H](Cc1c[nH]c2ccccc12)C(N)=O` (stereo in doubt), the EC50 at Melanocortin receptor 4 came out at 150 nM; at Melanocortin receptor 3 it was 886 nM; in experiment [2] it was 1210 nM. Besides, the Ratio in experiment [1] was 8.
In the case of `N=C(N)NCCC[C@H](NC(=O)C(Cc1ccccc1)NC(=O)[C@H](Cc1ccc(Cl)cc1)NC(=O)c1ccsc1)C(=O)N[C@@H](Cc1c[nH]c2ccccc12)C(N)=O` (stereo in doubt), the EC50 at Melanocortin receptor 4 came out at 27 nM; at Melanocortin receptor 3, 674 nM; in experiment [2], 671 nM. Moreover, the Ratio in experiment [1] and in experiment [3] was 25 each time.
In the case of `CCCCC(=O)N[C@@H](Cc1ccc(Cl)cc1)C(=O)NC(Cc1ccccc1)C(=O)N[C@@H](CCCN=C(N)N)C(=O)N[C@@H](Cc1c[nH]c2ccccc12)C(N)=O` (stereo in doubt), the EC50 worked out at 155 nM on Melanocortin receptor 4, 460 nM on Melanocortin receptor 3 and 441 nM in experiment [2]. For the same molecule, the Ratio in experiment [1] and in experiment [3] was 3 in each case.
Consider `N=C(N)NCCC[C@H](NC(=O)C(Cc1ccccc1)NC(=O)[C@H](Cc1ccc(Cl)cc1)NS(=O)(=O)C(F)(F)F)C(=O)N[C@@H](Cc1c[nH]c2ccccc12)C(N)=O` (stereo in doubt), for which the values for the EC50 (at Melanocortin receptor 4; at Melanocortin receptor 3; in experiment [2]) were 4530 nM, 1670 nM and 2160 nM, respectively. The Ratio in experiment [1] amounted to 0.5; in experiment [3], 0.4.
The corresponding values for `CN(C)C(=O)N[C@@H](Cc1ccc(Cl)cc1)C(=O)NC(Cc1ccccc1)C(=O)N[C@@H](CCCN=C(N)N)C(=O)N[C@@H](Cc1c[nH]c2ccccc12)C(N)=O` (stereo in doubt) are 42 nM, 175 nM, 2160 nM, 51 and 4.
With `C=CCC(=O)N[C@@H](Cc1ccc(Cl)cc1)C(=O)NC(Cc1ccccc1)C(=O)N[C@@H](CCCNC(=N)N)C(=O)N[C@@H](Cc1c[nH]c2ccccc12)C(N)=O` (stereo in doubt), the EC50 came out at 13.7 nM at Melanocortin receptor 4, 863 nM at Melanocortin receptor 3 and 856 nM in experiment [2]. The Ratio worked out at 62 in experiment [1] and 63 in experiment [3].
On to `N=C(N)NCCC[C@H](NC(=O)C(Cc1ccccc1)NC(=O)[C@H](Cc1ccc(Cl)cc1)NC(=O)CCC(=O)c1ccc(F)cc1)C(=O)N[C@@H](Cc1c[nH]c2ccccc12)C(N)=O` (stereo in doubt), for which the concentration for a half-maximal effect (EC50) on Melanocortin receptor 4 is 50 nM; on Melanocortin receptor 3, 203 nM; in experiment [2], 114 nM. Besides, the figures for the Ratio in experiment [1] and in experiment [3] were 2 and 4, respectively.

(Values after ChEMBL document CHEMBL1137864, “End-capping of the modified melanocortin tetrapeptide (p-Cl)Phe-D-Phe-Arg-Trp-NH2 as a route to hMC4R agonists” (Bioorg Med Chem Lett, 2004).)
